The source of these data is patent US8389555B2, “Medicaments” (Motac Neuroscience Limited, priority 2007, dated 2013).

The target of data set [1] is T1, human dopamine D3 receptors (Homo sapiens, UniProt P35462).
T1 construct: expressed in transfected cells
The data set can be described thus: Dopamine D3 receptor binding assay ([3H]spiperone, CHO cell membranes). Particulars: for Ki: human D3 receptors in CHO cells, 0.2 nM [3H]spiperone, mean ± SEM, read-out: Affinity Ki (D3); for Selectivity Ki(D2)/Ki(D3): ratio of Ki(D2) to Ki(D3). The protocol:
(§1) Compounds synthesized in Examples A, B, C and D were assayed to test their affinity for dopamine D3 and D2 receptors.
(§2) METHODS: Dopamine D2S and D3 Receptor Binding Assays
Human D3 receptors stably expressed in CHO cells were used as described by Sokoloff et al. (Sokoloff, P. et al., Eur. J. Pharmacol. 1992, 225, 331-337). The cell line was cultured in Dulbecco's modified Eagle's medium supplemented with 2 mM glutamine, and 10% dialyzed fetal bovine serum, and were grown in an atmosphere of 5% CO2 at 37° C. (Gibco™).
(§3) Human D2S- and D3 receptors expressing cell lines were grown to confluence. The medium was removed, and the cells were washed with 10 ml PBS buffer (140 mM NaCl, 3 mM KCl, 1.5 mM KH2PO4, 8 mM Na2HPO4, pH 7.4) at 4° C. After removing the wash buffer, the cells were scraped from the flasks into 15 ml of ice-cold media, and centrifuged at 3,000 rpm for 10 minutes at 4° C. After centrifugation the medium was removed and the […] resuspended in ice-cold Tris-HCl buffer containing 5 mM MgCl2, pH 7.4 and disrupted with a Polytron and centrifuged at 20,000 rpm, for 30 minutes at 4° C. The pellet was resuspended by sonication in ice-cold Tris-HCl buffer (containing 5 mM MgCl2, pH 7.4), membrane aliquots were stored at −70° C. Determination of membrane protein was carried out by the method of Bradford (Bradford, M. M. Anal Biochem 1976, 72, 248-54).
(§4) Cell membranes containing human D2S and D3 receptors from CHO cells were thawed, rehomogenized with sonication at 4° C. in Tris-HCl, pH 7.4 containing 120 mM NaCl, 5 mM KCl, 2 mM CaCl2 and 1 mM MgCl2 (incubation buffer), and incubated with 0.2 nM [^3H]spiperone (106 Ci·mmol^−1, Amersham Biosciences, Freiburg, Germany), and drug diluted in incubation buffer. Non-specific binding was determined in the presence of 10 μM BP 897 ((Wermuth, C. G. et al. in Chem. Abstr. (Eur. Pat. 0779284, 1997)). Incubations were run at 25° C. for 120 min, and terminated by rapid filtration through PerkinElmer GF/B glass fibre filters (PerkinElmer Life Sciences, Rodgau, Germany) coated in 0.3% polyethylenimine (Sigma-Aldrich, Taufkirchen, Germany) using an Inotech cell harvester (Inotech AG, Dottikon, Switzerland). Unbound radioligand was removed with four washes of 1 ml of ice-cold 50 mM Tris-HCl buffer, pH 7.4, containing 120 mM NaCl. The filters were soaked in 9 ml Beta plate scint scintillator and counted using a PerkinElmer MicroBeta®Trilux scintillation counter (PerkinElmer Life Sciences). Competition binding data were analyzed by the software GraphPad Prism™ (2000, version 3.02, San Diego, Calif., USA), using non-linear least squares fit. For detailed screening the compounds have been tested at seven concentrations in triplicate carrying out three to five separate binding experiments for human dopamine D2S and for human dopamine D3 receptors and expressed as mean±standard error of the mean (SEM). Ki values were calculated from the IC50 values according to Cheng-Prusoff equation (Cheng, Y. C., Prusoff, W. H. Biochem. Pharmacol. 1973, 22, 3099-3108.).

Data set [2] deals with T2, recombinant human D2(short) dopamine receptor (Homo sapiens, UniProt P14416).
T2 construct: expressed in transfected cells; host or cells: CHO-D2S cells (per Hayes et al. 1992)
T2 sequence (P14416 1-414 isoform P14416-2): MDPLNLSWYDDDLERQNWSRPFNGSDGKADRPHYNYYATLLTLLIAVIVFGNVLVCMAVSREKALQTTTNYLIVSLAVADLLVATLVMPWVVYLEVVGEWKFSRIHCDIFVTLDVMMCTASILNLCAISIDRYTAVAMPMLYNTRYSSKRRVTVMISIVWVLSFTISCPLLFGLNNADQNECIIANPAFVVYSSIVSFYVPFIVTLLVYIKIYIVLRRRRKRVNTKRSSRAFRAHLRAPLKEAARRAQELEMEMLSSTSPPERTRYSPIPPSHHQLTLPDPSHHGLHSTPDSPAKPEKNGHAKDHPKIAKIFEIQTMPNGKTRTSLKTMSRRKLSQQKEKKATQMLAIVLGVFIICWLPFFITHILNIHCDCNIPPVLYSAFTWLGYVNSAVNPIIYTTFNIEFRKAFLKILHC
The data set can be described thus: Dopamine D2S receptor binding assay ([3H]spiperone, CHO cell membranes). Conditions: human D2S receptors in CHO cells, 0.2 nM [3H]spiperone, mean ± SEM; read-out: Affinity Ki (D2). As for the experimental part: as §1, §2
CHO-D2S cells, expressing the recombinant human D2(short) dopamine receptor gene, (Hayes, G. et al., J. Mol. Endocrinol. 1992, 6, 920-926) were grown in Dulbecco's modified Eagle's medium/nutrient mixture F12 1:1 mixture supplemented with 2 mM glutamine, 10% fetal bovine serum, and 10 μl·ml^−1 penicillin/streptomycin in an atmosphere of 5% CO2 at 37° C. (Gibco™, Karlsruhe, Germany).
as §3, §4

For orientation: melting point means the temperature of the solid-liquid transition. By Ki is commonly meant a measure of affinity in units of concentration, obtained from inhibition or displacement.

Where a name gives a salt, the structure may show the parent alone.

T1 sequence (P35462 whole entry): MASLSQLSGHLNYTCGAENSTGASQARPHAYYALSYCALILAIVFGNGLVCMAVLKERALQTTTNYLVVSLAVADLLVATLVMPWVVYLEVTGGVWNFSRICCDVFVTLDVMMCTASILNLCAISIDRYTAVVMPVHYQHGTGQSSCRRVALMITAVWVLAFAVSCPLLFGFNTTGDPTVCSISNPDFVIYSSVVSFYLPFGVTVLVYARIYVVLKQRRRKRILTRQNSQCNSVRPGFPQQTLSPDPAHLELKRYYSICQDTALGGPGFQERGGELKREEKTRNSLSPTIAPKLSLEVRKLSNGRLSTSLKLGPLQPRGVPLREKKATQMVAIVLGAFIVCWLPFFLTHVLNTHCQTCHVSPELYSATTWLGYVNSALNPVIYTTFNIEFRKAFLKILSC

In turn, `CCCN(CCCCNC(=O)c1ccccc1)C1CCc2ncsc2C1` (stereo not drawn) (as salt: salt) [Compound 1, N-{4-[Propyl-(4,5,6,7-tetrahydro-benzothiazol-6-yl)-amino]-butyl}-benzamide] returned a melting point of 152 °C.

Regarding `CN(CCCCNC(=O)c1ccc2ccccc2c1)C1CCc2ncsc2C1` (stereo not drawn) (as salt: salt) [Compound 3, Naphthalene-2-carboxylic acid {4-[methyl-(4,5,6,7-tetrahydro-benzothiazol-6-yl)-amino]-butyl}-amide], the melting point amounted to 122 °C.

The molecule `CCN(CCCCNC(=O)c1ccc2ccccc2c1)C1CCc2ncsc2C1` (stereo not drawn) (as salt: salt) [Compound 4, Naphthalene-2-carboxylic acid {4-[ethyl-(4,5,6,7-tetrahydro-benzothiazol-6-yl)-amino]-butyl}-amide] yielded a melting point of 120 °C.

As for `CCCN(CCCCNC(=O)C1CCc2ccccc2C1)C1CCc2ncsc2C1` (stereo not drawn) [Compound 23, 1,2,3,4-Tetrahydro-naphthalene-2-carboxylic acid {4-[propyl-(4,5,6,7-tetrahydro-benzothiazol-6-yl)-amino]-butyl}-amide], in data set [1], the Ki worked out at 1.72 ± 0.22 nM and the “Selectivity Ki(D2)/Ki(D3)” value turned out to be 1262. In addition, the Ki in data set [2] is 2170 ± 566 nM.

As for `CCCN(CCCCNC(=O)C1Cc2ccccc2C1)C1CCc2ncsc2C1` (stereo not drawn) [Compound 26, Indane-2-carboxylic acid-{4-[propyl-(4,5,6,7-tetrahydrobenzothiazol-6-yl)amino]butyl}amide], in data set [1], the Ki worked out at 1.52 ± 0.55 nM and the “Selectivity Ki(D2)/Ki(D3)” value is 1189. Also, the Ki in data set [2] came to 1810 ± 376 nM.

For the molecule `CCCN(CCCCNC(=O)N1Cc2ccccc2C1)C1CCc2ncsc2C1` (stereo not drawn) [Compound 27, 1,3-Dihydro-isoindole-2-carboxylic acid {4-[propyl-(4,5,6,7-tetrahydro-benzothiazol-6-yl)-amino]-butyl}-amide], in data set [1], the Ki amounted to 2.25 ± 1.24 nM and the “Selectivity Ki(D2)/Ki(D3)” value stood at 1422. In addition, the Ki in data set [2] was found to be 3190 ± 1470 nM.

For `CCN(CCN1CCN(c2ccccc2OC)CC1)C1CCc2ncsc2C1` (stereo not drawn) [Compound 28], the figures for the Ki in data set [1] and in data set [2] were 13.5 ± 1.1 nM and 148 ± 23 nM, respectively. The “Selectivity Ki(D2)/Ki(D3)” value in data set [1] is 11.

`CCN(CCCN1CCN(c2ccccc2OC)CC1)C1CCc2ncsc2C1` (stereo not drawn) [Compound 29, Ethyl-{3-[4-(2-methoxy-phenyl)-piperazin-1-yl]-propyl}-(4,5,6,7-tetrahydro-benzothiazol-6-yl)-amine]: in data set [1], the Ki is 89 ± 1.7 nM and the “Selectivity Ki(D2)/Ki(D3)” value was found to be 2. For the same molecule, the Ki in data set [2] turned out to be 140 ± 122 nM.

Consider `CCN(CCCCN1CCN(c2ccccc2OC)CC1)C1CCc2ncsc2C1` (stereo not drawn) [Compound 30, Ethyl-{4-[4-(2-methoxy-phenyl)-piperazin-1-yl]-butyl}-(4,5,6,7-tetrahydro-benzothiazol-6-yl)-amine], for which, in data set [1], the Ki came out at 55.3 ± 16.1 nM and the “Selectivity Ki(D2)/Ki(D3)” value is 8.7. The Ki in data set [2] came to 480 ± 51 nM.

In the case of `CCN(CCN1CCc2ccccc2C1)C1CCc2ncsc2C1` (stereo not drawn) [Compound 31, [2-(3,4-Dihydro-1H-isoquinolin-2-yl)-ethyl]-ethyl-(4,5,6,7-tetrahydro-benzothiazol-6-yl)-amine], in data set [1], the inhibition constant Ki worked out at 26.5 ± 4.4 nM and the “Selectivity Ki(D2)/Ki(D3)” value is reported as 35. In addition, the Ki in data set [2] was found to be 929 ± 103 nM.

For `CCN(CCNC(=O)c1ccc2ccccc2c1)C1CCc2ncsc2C1` (stereo not drawn) [Compound 32, Naphthalene-2-carboxylic acid {2-[ethyl-(4,5,6,7-tetrahydro-benzothiazol-6-yl)-amino]-ethyl}-amide], in data set [1], the Ki came out at 67.8 ± 21.4 nM and the “Selectivity Ki(D2)/Ki(D3)” value was found to be 38. Also, the Ki in data set [2] turned out to be 2550 ± 302 nM.

On to `CCCN(CCCN1CCN(c2cccc(Cl)c2Cl)CC1)C1CCc2ncsc2C1` (stereo not drawn) [Compound 36, {3-[4-(2,3-Dichloro-phenyl)-piperazin-1-yl]-propyl}-propyl-(4,5,6,7-tetrahydro-benzothiazol-6-yl)-amine], for which, in data set [1], the Ki came out at 35 ± 22 nM and the “Selectivity Ki(D2)/Ki(D3)” value was found to be 4. Besides, in data set [2], the Ki stood at 129 ± 36 nM.

Consider `CCCN(CCCCN1CCN(c2cccc(Cl)c2Cl)CC1)C1CCc2ncsc2C1` (stereo not drawn) [Compound 37, {4-[4-(2,3-Dichloro-phenyl)-piperazin-1-yl]-butyl}-propyl-(4,5,6,7-tetrahydro-benzothiazol-6-yl)-amine], for which, in data set [1], the Ki amounted to 7.6 ± 1.6 nM and the “Selectivity Ki(D2)/Ki(D3)” value came out at 7. Also, the Ki in data set [2] is 79.4 ± 49.7 nM.

As for `CCCN(CCN1CCN(C(=O)c2ccccc2)CC1)C1CCc2ncsc2C1` (stereo not drawn) [Compound 38, [2-(4-Benzoyl-piperazin-1-yl)-ethyl]-propyl-(4,5,6,7-tetrahydro-benzothiazol-6-yl)-amine], the Ki in data set [1] amounted to 27.4 ± 14.8 nM; in data set [2], 5270 ± 1850 nM. In addition, the “Selectivity Ki(D2)/Ki(D3)” value in data set [1] is listed as 192.

In the case of `CCCN(CCCCNC(=O)NC1Cc2ccccc2C1)C1CCc2ncsc2C1` (stereo not drawn) [Compound 60, 1-Indan-2-yl-3-{4-[propyl-(4,5,6,7-tetrahydrobenzothiazol-6-yl)amino]butyl}urea], in data set [1], the Ki came to 3.36 ± 1.21 nM and the “Selectivity Ki(D2)/Ki(D3)” value is 649. Further, the Ki in data set [2] stood at 2180 ± 1640 nM.

As for `CCCN(CCCCNC(=O)N1CCN(c2ccccc2)CC1)C1CCc2ncsc2C1` (stereo not drawn) [Compound 61, 4-Phenylpiperazine-1-carboxylic acid {4-[propyl-(4,5,6,7-tetrahydrobenzothiazol-6-yl)amino]butyl}amide], in data set [1], the Ki was found to be 2.09 ± 0.57 nM and the “Selectivity Ki(D2)/Ki(D3)” value was found to be 1640. The Ki in data set [2] amounted to 3430 ± 1290 nM.

Consider `CCCN(CCCCNC(=O)N1CC=C(c2ccccc2)CC1)C1CCc2ncsc2C1` (stereo not drawn) [Compound 62, 4-Phenyl-3,6-dihydro-2H-pyridine-1-carboxylic acid {4-[propyl-(4,5,6,7-tetrahydrobenzothiazol-6-yl)amino]butyl}amide], for which, in data set [1], the Ki came to 7.31 ± 2.86 nM and the “Selectivity Ki(D2)/Ki(D3)” value turned out to be 667. The Ki in data set [2] was found to be 4880 ± 1890 nM.

Regarding `O=C(NCCCCNC1CCc2ncsc2C1)c1nc2ccccc2s1` (stereo not drawn) [Compound 63, N-(4-(4,5,6,7-Tetrahydrobenzo[d]thiazol-6-ylamino)butyl)benzo[d]thiazole-2-carboxamide], the Ki in data set [1] is 1900 ± 510 nM; in data set [2] it was 24500 ± 7580 nM. The “Selectivity Ki(D2)/Ki(D3)” value in data set [1] was 13.

Consider `CCCN(CCCCNC(=O)N1CCC(c2ccccc2)CC1)C1CCc2ncsc2C1` (stereo not drawn) [Compound 64, 4-phenyl-N-(4-(propyl-(4,5,6,7-tetrahydrobenzo [d]thiazol-6-yl)amino)butyl)piperidine-1-carboxamide], for which, in data set [1], the inhibition constant (Ki) was 6.29 ± 1.8 nM and the “Selectivity Ki(D2)/Ki(D3)” value is listed as 435. In data set [2], the Ki was found to be 2730 ± 611 nM.

As to `CCCN(CCCCNC(=O)C12CC3CC(CC(C3)C1)C2)C1CCc2ncsc2C1` (stereo not drawn) [Compound 65], in data set [1], the Ki was 0.95 nM and the “Selectivity Ki(D2)/Ki(D3)” value was 2879. Besides, the Ki in data set [2] stood at 2740 ± 1080 nM.

On to `CCCN(CCCCC(=O)N1CCN(c2ccccc2)CC1)C1CCc2ncsc2C1` (stereo not drawn) [Compound 66, 1-(4-Phenylpiperazin-1-yl)-5-(propyl-(4,5,6,7-tetrahydrobenzothiazol-6-yl)amino)pentan-1-one], for which, in data set [1], the Ki was found to be 7.23 ± 1 nM and the “Selectivity Ki(D2)/Ki(D3)” value came out at 572. Moreover, the Ki in data set [2] is 4130 ± 1560 nM.

With `CCCN(CCOc1ccccc1)C1CCc2ncsc2C1` (stereo not drawn) [Compound 69, N-(2-Phenoxyethyl)-N-propyl-4,5,6,7-tetrahydrobenzothiazol-6-amine], in data set [1], the Ki was 51 ± 10 nM and the “Selectivity Ki(D2)/Ki(D3)” value was determined as 91. Further, the Ki in data set [2] was found to be 4670 ± 1320 nM.
